Reference: patent US20250163057A1, “DCN-1 MODULATING COMPOUNDS AND METHODS OF USE THEREOF” (Cellarity, Inc., priority 2023, published 2025)
Like-named read-outs stand apart in the source and are kept apart here.

How the values were obtained:
[1] = target: DCN1 (DCUND1) protein PONY domain (Homo sapiens (Human), UniProt Q96GG9); test: TR-FRET assay, DCN1 binding with FAM-labeled probe
Procedure, shortened: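 Binding was read as the TR-FRET ratio between a FAM-tagged inhibitor probe and Tb-labeled biotinylated E. coli-expressed DCN1 PONY domain, measured 1, 5 and 24 h after compound addition. The two setups used 5 nM protein/20 nM FAM-probe or 0.31 nM protein/900 nM total probe (100 nM labeled), in TritonX buffer with 200 mM NaCl.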

[2] = system: Cullin-3 (CUL3) neddylation; test: AlphaLISA assay for Cullin-3 (CUL3) neddylation in TF 1 cells; format: cell-based; conditions: Homo sapiens, 3 hours treatment
Procedure, shortened: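 Neddylated CUL3 was quantified by AlphaLISA in lysates of TF 1 cells exposed for 3 h to test compound in IMDM without supplements. Percent inhibition set between vehicle and 1 μM DI-1548 positive control; IC50 derived by Hill-equation fitting of dose-response curves.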

[3] = 24 hr after treatment with compound, read-out: TR FRET IC50 24 hr
[4] = TR FRET IC50 1 hr (nM), 1 hr after treatment with compound
[5] = read-out: TR FRET IC50 1 hr, 1 hr after treatment with compound

DCN1 (DCUND1) protein PONY domain, sequence (Q96GG9 60-248): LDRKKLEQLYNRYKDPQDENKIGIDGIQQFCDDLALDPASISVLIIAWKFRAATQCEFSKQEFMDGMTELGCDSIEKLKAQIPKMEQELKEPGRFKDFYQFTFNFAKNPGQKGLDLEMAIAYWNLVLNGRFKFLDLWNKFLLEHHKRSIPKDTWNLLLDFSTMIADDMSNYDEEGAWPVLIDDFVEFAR

| SMILES | IC50 [1, 3] | IC50 [1, 4] | IC50 ([2]; TF-1, 3 h) | IC50 [1, 5] | IC50 [2] |
| --- | --- | --- | --- | --- | --- |
| CCN1C(=O)[C@@H](NC(=O)c2cccc(C(F)(F)F)c2)[C@@H](c2ccc(F)cc2)c2c([C@@H](CO)NC#N)nn(-c3ccccc3)c21 [Compound I-487] | ≤ 200 nM | 200 to 1000 nM | 100 to 1000 nM | – | – |
| CCN1C(=O)[C@@H](NC(=O)c2cccc(C(F)(F)F)c2)[C@@H](c2ccc(F)cc2)c2c([C@H](CCCO)NC#N)nn(-c3ccccc3)c21 [Compound I-489] | ≤ 200 nM | 200 to 1000 nM | ≤ 100 nM | – | – |
| CCN1C(=O)[C@@H](NC(=O)c2cccc(C(F)(F)F)c2)[C@@H](c2ccc(F)cc2)c2c(CNC/C=C/C(=O)N(C)C)nn(-c3ccccc3)c21 [Compound I-490] | ≤ 200 nM | – | 100 to 1000 nM | ≤ 200 nM | – |
| CCN1C(=O)[C@@H](NC(=O)c2cccc(C(F)(F)F)c2)[C@@H](C2CC2)c2c(C(=O)N(C)C(C)C#N)nn(C3CC3)c21 (stereo partly drawn) [Compound I-492] | 200 to 1000 nM | 200 to 1000 nM | ≤ 100 nM | – | – |
| CCN1C(=O)[C@H](NC(=O)c2cccc(C(F)(F)F)c2)[C@H](c2ccc(C)cc2)c2c(C(=O)N(C)CC#N)nn(C3CC3)c21 [Compound I-494] | 1000 to 3000 nM | 1000 to 3000 nM | > 1000 nM | – | – |
| CCN1C(=O)[C@@H](NC(=O)c2nccc(C(F)(F)F)n2)[C@H](c2ccc(F)cc2)c2c(CNC(=O)/C=C/C(=O)N3CCCC3)nn(-c3ccccc3)c21 [Compound I-495] | 200 to 1000 nM | 200 to 1000 nM | > 1000 nM | – | – |
| CCN1C(=O)[C@@H](NC(=O)c2cccc(C(F)(F)F)c2)[C@@H](c2ccc(F)cc2)c2c(CN(C#N)CCCN3CCOCC3)nn(-c3ccccc3)c21 [Compound I-496] | ≤ 200 nM | – | ≤ 100 nM | ≤ 200 nM | – |
| CCN1C(=O)[C@@H](NC(=O)c2cccc(C(F)(F)F)c2)[C@@H](c2ccc(F)cc2)c2c([C@@H](CCC(O)CO)NC#N)nn(-c3ccccc3)c21 (stereo partly drawn) [Compound I-497] | ≤ 200 nM | – | ≤ 100 nM | ≤ 200 nM | – |
| C[C@@H](NC#N)c1nn(-c2ccccc2)c2c1[C@@H](c1ccc(F)cc1)[C@@H](NC(=O)c1cccc(C(F)(F)F)c1)C(=O)N2CCO [Compound I-498] | 1000 to 3000 nM | 1000 to 3000 nM | > 1000 nM | – | – |
| CCN1C(=O)[C@@H](NC(=O)c2cccc(C(F)(F)F)c2)[C@@H](c2ccc(F)cc2)c2c([C@@H](C)NC(N)=O)nn(-c3ccccc3)c21 [Compound I-499, N-((4S,5S)-7-ethyl-4-(4-fluorophenyl)-6-oxo-1-phenyl-3-((R)-1-ureidoethyl)-4,5,6,7-tetrahydro-1H-pyrazolo[3,4-b]pyridin-5-yl)-3-(trifluoromethyl)benzamide] | 1000 to 3000 nM | 1000 to 3000 nM | 100 to 1000 nM | – | – |
| CCN1C(=O)[C@@H](NC(=O)c2cccc(C(F)(F)F)c2)[C@@H](C2CC2)c2c(C(=O)N3C[C@@H](NC)C[C@H]3C#N)nn(C3CCOCC3)c21 [Compound I-503, N-((4S,5S)-3-((2S,4S)-2-cyano-4-(methylamino)pyrrolidine-1-carbonyl)-4-cyclopropyl-7-ethyl-6-oxo-1-(tetrahydro-2H-pyran-4-yl)-4,5,6,7-tetrahydro-1H-pyrazolo[3,4-b]pyridin-5-yl)-3-(trifluoromethyl)benzamide] | 200 to 1000 nM | 1000 to 3000 nM | > 1000 nM | – | – |
| CCN1C(=O)[C@@H](NC(=O)c2cnc(C)cc2Cl)[C@@H](C2CC2)c2c(C(=O)N3[C@H](C#N)C[C@H]4C[C@H]43)nn(C3CCOCC3)c21 [Compound I-506] | 1000 to 3000 nM | 1000 to 3000 nM | > 1000 nM | – | – |
| CCN1C(=O)[C@@H](NC(=O)c2cccc(C(F)(F)F)c2F)[C@@H](C2CC2)c2c(C(=O)N3[C@H](C#N)C[C@H]4C[C@H]43)nn(C3CCOCC3)c21 [Compound I-514] | ≤ 200 nM | – | – | ≤ 200 nM | ≤ 100 nM |
| CCN1C(=O)[C@@H](NC(=O)c2cccc(C(F)(F)F)c2)[C@@H](C2CCC2)c2c(C(=O)N(CC#N)C3CC3)nn(C3CCOCC3)c21 [Compound I-515] | ≤ 200 nM | 200 to 1000 nM | 100 to 1000 nM | – | – |
| CCN1C(=O)[C@@](C)(NC(=O)c2cccc(C(F)(F)F)c2)[C@@H](C2CC2)c2c(C(=O)N3[C@H](C#N)C[C@H]4C[C@H]43)nn(C3CCOCC3)c21 [Compound I-516, N-((4S,5S)-3-((1R,3S,5R)-3-cyano-2-azabicyclo[3.1.0]hexane-2-carbonyl)-4-cyclopropyl-7-ethyl-5-methyl-6-oxo-1-(tetrahydro-2H-pyran-4-yl)-4,5,6,7-tetrahydro-1H-pyrazolo[3,4-b]pyridin-5-yl)-3-(trifluoromethyl)benzamide] | ≤ 200 nM | – | ≤ 100 nM | ≤ 200 nM | – |
| CCN1C(=O)[C@@H](NC(=O)c2cccc(C(F)(F)F)c2)[C@@H](C2CC2)c2c(C(=O)N3CS(=O)(=O)C[C@H]3C#N)nn(-c3ccccc3)c21 [Compound I-519] | ≤ 200 nM | – | ≤ 100 nM | ≤ 200 nM | – |
| CCN1C(=O)[C@@H](NC(=O)c2cccc(C(F)(F)F)c2)[C@@H](C2CC2)c2c(C(=O)N3CS(=O)(=O)C[C@@H]3C#N)nn(-c3ccccc3)c21 [Compound I-521] | ≤ 200 nM | 1000 to 3000 nM | ≤ 100 nM | – | – |
